US11566007B2, “Ras inhibitors” (Revolution Medicines, Inc., priority 2019, dated 2023)
Read-outs that look alike come from different tables or passages of the source.

What was measured:
NCI-H358 (K-Ras G12C) = assay: CellTiter-Glo cell viability assay, NCI-H358; type: cell-based, human; conditions: Homo sapiens, NCI-H358, 120 h, class symbols
How it was run: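 Viability of K-Ras mutant lines is measured by ATP luminescence after five days of compound treatment. Percent of DMSO control is calculated and dose-response data are fitted with a four-parameter logistic equation.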

K-Ras G12C = K-Ras G12C (Homo sapiens (Human), UniProt P01116+P62937, G12C); assay: Ras-Raf (BRAF RBD) disruption / FRET / MOA assay, KRAS G12C; type: biochemical; conditions: KRAS G12C; Ras-Raf disruption/FRET/MOA assay; read-out: IC50* KRAS G12C FRET data
Chain of K-Ras G12C (P01116-2 other isoform, or with tags, fused parts or gaps G12C): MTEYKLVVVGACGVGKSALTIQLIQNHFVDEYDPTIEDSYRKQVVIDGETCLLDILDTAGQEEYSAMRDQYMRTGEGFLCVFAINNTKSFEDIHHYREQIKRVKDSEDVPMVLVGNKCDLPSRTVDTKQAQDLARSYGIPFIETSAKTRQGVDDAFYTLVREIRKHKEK
Chain of K-Ras G12C (P62937 whole entry): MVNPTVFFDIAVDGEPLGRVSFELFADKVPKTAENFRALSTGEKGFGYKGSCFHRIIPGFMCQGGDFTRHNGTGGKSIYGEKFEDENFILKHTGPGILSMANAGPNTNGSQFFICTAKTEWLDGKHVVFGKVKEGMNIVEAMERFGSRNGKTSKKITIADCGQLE
How it was run: (§1)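 Compound-driven ternary complex of nucleotide-loaded Ras with cyclophilin A, disrupting BRAF RBD binding. 10-point 3-fold dilution from 30 μM final, 3 h at 25° C, then anti-His Eu-W1024 (10 nM) and anti-GST allophycocyanin (50 nM) for 1.5 h. IC50 from TR-FRET ratio decrease versus DMSO.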

K-Ras G13C = K-Ras G13C (Homo sapiens (Human), UniProt P01116+P62937, G13C); assay: Ras-Raf (BRAF RBD) disruption / FRET / MOA assay, KRAS G13C; type: biochemical; conditions: KRAS G13C; Ras-Raf disruption/FRET/MOA assay; read-out: IC50* KRAS G13C FRET data
Chain of K-Ras G13C (P01116-2 other isoform, or with tags, fused parts or gaps G13C): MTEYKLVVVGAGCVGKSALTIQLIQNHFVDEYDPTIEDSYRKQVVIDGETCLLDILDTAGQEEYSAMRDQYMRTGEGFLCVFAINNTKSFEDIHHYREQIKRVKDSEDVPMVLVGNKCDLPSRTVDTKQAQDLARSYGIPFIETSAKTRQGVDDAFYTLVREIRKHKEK
Chain of K-Ras G13C (P62937 whole entry): as the sequence (P62937 whole entry) above
How it was run: as §1

KRAS G12S = KRAS G12S (Homo sapiens (Human), UniProt P01116+P62937, G12S); assay: Ras-Raf (BRAF RBD) disruption / FRET / MOA assay, KRAS G12S; type: biochemical; conditions: Ras-Raf disruption/FRET/MOA assay; class symbols; read-out: KRAS G12S FRET data IC50
Chain of KRAS G12S (P01116-2 other isoform, or with tags, fused parts or gaps G12S): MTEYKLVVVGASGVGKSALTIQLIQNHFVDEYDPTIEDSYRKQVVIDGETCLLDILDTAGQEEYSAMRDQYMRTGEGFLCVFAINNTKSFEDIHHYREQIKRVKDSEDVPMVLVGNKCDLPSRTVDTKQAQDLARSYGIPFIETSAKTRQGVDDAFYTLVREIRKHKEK
Chain of KRAS G12S (P62937 whole entry): as the sequence (P62937 whole entry) above
How it was run: as §1

KRAS G12D = KRAS G12D (Homo sapiens (Human), UniProt P01116+P62937, G12D); assay: Ras-Raf (BRAF RBD) disruption / FRET / MOA assay, KRAS G12D; type: biochemical; conditions: Ras-Raf disruption/FRET/MOA assay; class symbols; read-out: KRAS G12D FRET data IC50
Chain of KRAS G12D (P01116-2 other isoform, or with tags, fused parts or gaps G12D): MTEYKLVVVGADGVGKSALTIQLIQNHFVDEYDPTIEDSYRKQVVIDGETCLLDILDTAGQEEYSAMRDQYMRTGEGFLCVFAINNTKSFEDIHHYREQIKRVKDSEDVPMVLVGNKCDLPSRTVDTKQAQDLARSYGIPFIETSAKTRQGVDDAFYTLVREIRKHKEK
Chain of KRAS G12D (P62937 whole entry): as the sequence (P62937 whole entry) above
How it was run: as §1

KRAS G12V = KRAS G12V (Homo sapiens (Human), UniProt P01116+P62937, G12V); assay: Ras-Raf (BRAF RBD) disruption / FRET / MOA assay, KRAS G12V; type: biochemical; conditions: read-out: IC50* KRAS G12V FRET data
Chain of KRAS G12V (P01116-2 other isoform, or with tags, fused parts or gaps G12V): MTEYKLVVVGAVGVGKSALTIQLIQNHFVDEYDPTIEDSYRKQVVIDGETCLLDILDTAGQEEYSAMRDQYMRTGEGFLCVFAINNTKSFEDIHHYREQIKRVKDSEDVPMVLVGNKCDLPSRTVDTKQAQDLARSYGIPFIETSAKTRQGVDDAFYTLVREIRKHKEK
Chain of KRAS G12V (P62937 whole entry): as the sequence (P62937 whole entry) above
How it was run: as §1

KRAS WT = KRAS WT (Homo sapiens (Human), UniProt P01116+P62937); assay: Ras-Raf (BRAF RBD) disruption / FRET / MOA assay, KRAS WT; type: biochemical; conditions: read-out: IC50* KRAS WT FRET data
Chain of KRAS WT (P01116-2 other isoform, or with tags, fused parts or gaps): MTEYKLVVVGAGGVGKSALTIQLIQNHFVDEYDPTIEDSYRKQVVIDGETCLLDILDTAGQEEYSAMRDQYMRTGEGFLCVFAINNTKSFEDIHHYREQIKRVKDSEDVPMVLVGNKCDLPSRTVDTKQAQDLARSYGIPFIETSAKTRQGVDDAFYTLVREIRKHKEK
Chain of KRAS WT (P62937 whole entry): as the sequence (P62937 whole entry) above
How it was run: as §1

KRAS G13D = KRAS G13D (Homo sapiens (Human), UniProt P01116+P62937, G13D); assay: Ras-Raf (BRAF RBD) disruption / FRET / MOA assay, KRAS G13D; type: biochemical; conditions: read-out: IC50* KRAS G13D FRET data
Chain of KRAS G13D (P01116-2 other isoform, or with tags, fused parts or gaps G13D): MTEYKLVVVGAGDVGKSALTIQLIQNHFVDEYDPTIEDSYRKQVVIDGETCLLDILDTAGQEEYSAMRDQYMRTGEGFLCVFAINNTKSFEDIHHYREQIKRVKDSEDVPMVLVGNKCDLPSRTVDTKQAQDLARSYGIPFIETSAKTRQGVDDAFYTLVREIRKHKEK
Chain of KRAS G13D (P62937 whole entry): as the sequence (P62937 whole entry) above
How it was run: as §1

KRAS Q61H = KRAS Q61H (Homo sapiens (Human), UniProt P01116+P62937, Q61H); assay: Ras-Raf (BRAF RBD) disruption / FRET / MOA assay, KRAS Q61H; type: biochemical; conditions: Ras-Raf disruption/FRET/MOA assay; class symbols; read-out: KRAS Q61H FRET data IC50
Chain of KRAS Q61H (P01116-2 other isoform, or with tags, fused parts or gaps Q61H): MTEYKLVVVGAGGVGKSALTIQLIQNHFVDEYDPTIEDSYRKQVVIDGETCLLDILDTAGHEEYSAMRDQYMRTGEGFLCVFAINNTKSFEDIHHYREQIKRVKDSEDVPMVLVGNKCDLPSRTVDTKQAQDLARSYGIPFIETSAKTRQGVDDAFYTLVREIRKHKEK
Chain of KRAS Q61H (P62937 whole entry): as the sequence (P62937 whole entry) above
How it was run: (§2)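 Compounds (30 μM top final, 10-point 3-fold dilutions) incubated 3 h at 25° C with nucleotide-loaded Ras, cyclophilin A and BRAF RBD. Detection with 10 nM anti-His Eu-W1024 and 50 nM anti-GST allophycocyanin over another 1.5 h. Lowered TR-FRET ratio relative to DMSO wells gives IC50.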

NRAS G12C = NRAS G12C (Homo sapiens (Human), UniProt P01111+P62937, G12C); assay: Ras-Raf (BRAF RBD) disruption / FRET / MOA assay, NRAS G12C; type: biochemical; conditions: read-out: IC50* NRAS G12C FRET data
Chain of NRAS G12C (P01111 whole entry G12C): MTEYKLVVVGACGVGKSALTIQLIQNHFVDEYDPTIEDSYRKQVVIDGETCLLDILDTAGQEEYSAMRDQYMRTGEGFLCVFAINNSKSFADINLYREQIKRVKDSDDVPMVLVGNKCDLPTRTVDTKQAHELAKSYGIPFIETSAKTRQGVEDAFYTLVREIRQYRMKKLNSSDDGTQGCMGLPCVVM
Chain of NRAS G12C (P62937 whole entry): as the sequence (P62937 whole entry) above
How it was run: as §1

NRAS Q61R = NRAS Q61R (Homo sapiens (Human), UniProt P01111+P62937, Q61R); assay: Ras-Raf (BRAF RBD) disruption / FRET / MOA assay, NRAS Q61R; type: biochemical; conditions: NRAS Q61R; Ras-Raf disruption/FRET/MOA assay; read-out: IC50* NRAS Q61R FRET data
Chain of NRAS Q61R (P01111 whole entry Q61R): as the sequence (P01111 whole entry G12C) above, with C12G, Q61R counted along it
Chain of NRAS Q61R (P62937 whole entry): as the sequence (P62937 whole entry) above
How it was run: as §2

NRAS WT = NRAS WT (Homo sapiens (Human), UniProt P01111+P62937); assay: Ras-Raf (BRAF RBD) disruption / FRET / MOA assay, NRAS WT; type: biochemical; conditions: read-out: IC50* NRAS WT FRET data
Chain of NRAS WT (P01111 whole entry): as the sequence (P01111 whole entry G12C) above, with C12G counted along it
Chain of NRAS WT (P62937 whole entry): as the sequence (P62937 whole entry) above
How it was run: as §2

[1] = NCI-H358, 5-day treatment, read-out: Additional H358 Cell Viability assay data (K-Ras G12C, IC50)

SMILES	IC50 (NCI-H358 (K-Ras G12C); [1]) [µM]	IC50 (K-Ras G12C) [nM]	IC50 (K-Ras G13C) [nM]	IC50 (KRAS G12S) [nM]	IC50 (KRAS G12D) [nM]	IC50 (KRAS G12V) [nM]	IC50 (KRAS WT) [nM]	IC50 (KRAS G13D) [nM]	IC50 (KRAS Q61H) [nM]	IC50 (NRAS G12C) [nM]	IC50 (NRAS Q61R) [nM]	IC50 (NRAS WT) [nM]	IC50 (NCI-H358 (K-Ras G12C); read-out: Additional H358 Cell Viability assay data (K-Ras G12C, IC50, uM), NCI-H358, 5-day treatment) [µM]
CCn1c(-c2cccnc2[C@H](C)OC)c2c3cc(ccc31)-c1cccc(c1)C[C@H](NC(=O)[C@H](C(C)C)N1CC[C@]3(CCN(C(=O)C#C[C@H]4COCCN4C4COC4)C3)C1=O)C(=O)N1CCC[C@H](N1)C(=O)OCC(C)(C)C2 (atropisomer, axis not shown) [Example A568]	0.01 to 0.1	10 to 100	1000 to 10000	1000 to 10000	> 10000	> 10000	> 10000	> 10000	1000 to 10000	100 to 1000	> 10000	> 10000	
CCn1c(-c2cccnc2[C@H](C)OC)c2c3cc(ccc31)-c1cccc(c1)C[C@H](NC(=O)[C@H](C(C)C)N1CC[C@]3(CCN(C(=O)C#C[C@@H]4COCCN4C)C3)C1=O)C(=O)N1CCC[C@H](N1)C(=O)OCC(C)(C)C2 (atropisomer, axis not shown) [Example A569]		10 to 100	1000 to 10000	1000 to 10000	> 10000	> 10000	10 to 100	> 10000	1000 to 10000	10 to 100	> 10000	> 10000	0.01 to 0.1
C=CC(=O)N(C)CCN1CCN(C(=O)N(C)[C@H](C(=O)N[C@H]2Cc3cccc(c3)-c3ccc4c(c3)c(c(-c3cccnc3[C@H](C)OC)n4CC)CC(C)(C)COC(=O)[C@@H]3CCCN(N3)C2=O)C(C)C)C[C@@H]1C (atropisomer, axis not shown) [Example A570]	0.1 to 1	100 to 1000	10 to 100	100 to 1000	1000 to 10000	100 to 1000	100 to 1000	1000 to 10000	100 to 1000	100 to 1000	100 to 1000	100 to 1000	
C=CC(=O)N1CCO[C@H]2CN(C(=O)N(C)[C@H](C(=O)N[C@H]3Cc4nc(n(C)n4)-c4ccc5c(c4)c(c(-c4cccnc4[C@H](C)OC)n5CC(F)(F)F)CC(C)(C)COC(=O)[C@@H]4CCCN(N4)C3=O)C(C)C)C[C@H]21 (atropisomer, axis not shown) [Example A575]	0.01 to 0.1	10 to 100	10 to 100	100 to 1000	1000 to 10000	1000 to 10000	100 to 1000	1000 to 10000	100 to 1000	10 to 100	100 to 1000	100 to 1000	
C=CC(=O)N1CCO[C@]2(CCN(C(=O)N(C)[C@H](C(=O)N[C@H]3Cc4nc(cs4)-c4ccc5c(c4)c(c(-c4cccnc4[C@H](C)OC)n5CC(F)(F)F)CC(C)(C)COC(=O)[C@@H]4CCCN(N4)C3=O)C(C)C)C2)C1 (atropisomer, axis not shown) [Example A593]	0.1 to 1	100 to 1000	100 to 1000	1000 to 10000	1000 to 10000	1000 to 10000	1000 to 10000	1000 to 10000	100 to 1000	100 to 1000	100 to 1000	100 to 1000	
CCn1c(-c2cccnc2[C@H](C)OC)c2c3cc(ccc31)-c1csc(n1)C[C@H](NC(=O)[C@H](C(C)C)N(C)C(=O)N1CCC13CN(C(=O)/C=C/CN(C)C)C3)C(=O)N1CCC[C@H](N1)C(=O)OCC(C)(C)C2 (atropisomer, axis not shown) [Example A598]	0.01 to 0.1	10 to 100	100 to 1000	10 to 100	100 to 1000	100 to 1000	10 to 100	100 to 1000	< 10	10 to 100	10 to 100	10 to 100	
C=CC(=O)N1CCOC2(CCN(C(=O)N(C)[C@H](C(=O)N[C@H]3Cc4cccc(n4)-c4ccc5c(c4)c(c(-c4cccnc4[C@H](C)OC)n5CC(F)(F)F)CC(C)(C)COC(=O)[C@@H]4CCCN(N4)C3=O)C(C)C)CC2)C1 (atropisomer, axis not shown) [Example A607, 4-acryloyl-N-((2S)-1-(((6^3S,4S)-1^2-(2-((S)-1-methoxyethyl)pyridin-3-yl)-10,10-dimethyl-5,7-dioxo-1^1-(2,2,2-trifluoroethyl)-6^1,6^2,6^3,6^4,6^5,6^6-hexahydro-1^1H-8-oxa-1(5,3)-indola-6(1,3)-pyridazina-2(2,6)-pyridinacycloundecaphane-4-yl)amino)-3-methyl-1-oxobutan-2-yl)-N-methyl-1-oxa-4,9-diazaspiro[5.5]undecane-9-carboxamide]	0.01 to 0.1	100 to 1000	10 to 100	1000 to 10000	1000 to 10000	1000 to 10000	100 to 1000	1000 to 10000	100 to 1000	100 to 1000	100 to 1000	100 to 1000	
CCn1c(-c2cccnc2[C@H](C)OC)c2c3cc(ccc31)-c1csc(n1)C[C@H](NC(=O)[C@H](C(C)C)N(C)C(=O)N1CCC13CN(C(=O)/C=C/CN1CCOCC1)C3)C(=O)N1CCC[C@H](N1)C(=O)OCC(C)(C)C2 (atropisomer, axis not shown) [Example A611]	0.01 to 0.1	100 to 1000	100 to 1000	100 to 1000	1000 to 10000	100 to 1000	100 to 1000	100 to 1000	10 to 100	100 to 1000	10 to 100	100 to 1000	
CCn1c(-c2cccnc2[C@H](C)OC)c2c3cc(ccc31)-c1cccc(c1)C[C@H](NC(=O)[C@@H](COC1CN(C(=O)C#CC(C)(C)N(C)C3CC3)C1)C(C)C)C(=O)N1CCC[C@H](N1)C(=O)OCC(C)(C)C2 (atropisomer, axis not shown) [Example A613]	0.01 to 0.1	100 to 1000	> 10000	> 10000	> 10000	> 10000	> 10000	> 10000	> 10000	1000 to 10000	> 10000	> 10000	
CCn1c(-c2cccnc2[C@H](C)OC)c2c3cc(ccc31)N1CCC[C@@H](C[C@H](NC(=O)[C@H](C(C)C)N(C)C(=O)[C@H]3CCN(C(=O)C#CC(C)(C)N4CCC4)C3)C(=O)N3CCC[C@H](N3)C(=O)OCC(C)(C)C2)C1 (atropisomer, axis not shown) [Example A617]	0.01 to 0.1	10 to 100	> 10000	> 10000	> 10000	> 10000	> 10000	> 10000	> 10000	10 to 100	> 10000	> 10000	
C=CC(=O)N1CCC[C@H]2CN(C(=O)N(C)[C@H](C(=O)N[C@H]3Cc4nc(cs4)-c4ccc5c(c4)c(c(-c4cccnc4[C@H](C)OC)n5CC)CC(C)(C)COC(=O)[C@@H]4CCCN(N4)C3=O)C(C)C)C[C@H]21 (atropisomer, axis not shown) [Example A618]	0.01 to 0.1	100 to 1000	100 to 1000	100 to 1000	1000 to 10000	100 to 1000	100 to 1000	1000 to 10000	100 to 1000	100 to 1000	100 to 1000	100 to 1000	
